The text below walks through data of US11021711B2, “Genetic variations associated with drug resistance” (GENENTECH, Inc., priority 2008, dated 2021).

A word on the IC50: it is the concentration that inhibits the measured activity by half.

Read-outs that look alike come from different tables or passages of the source. Square brackets hold non-standard residues; d marks the D form. Peptide text beside a SMILES is read from it. * marks the point of attachment. Dolaproine = CO[C@@H]([C@@H]1CCCN1)[C@@H](C)C(=O)O; Dil = CC[C@H](C)[C@H](NC)[C@@H](CC(=O)O)OC; X1 = C[C@@H](N*)[C@@H](O)c1ccccc1; NMeV = CN[C@H](C(=O)O)C(C)C

The test system of assay [1] is EFM192A. Kind of assay: Celltiter-Glo Luminescent Cell Viability Assay, EFM192A. The format is cell-based, human. As to conditions: 72 hours. The procedure:
(§1) For MMAE and paclitaxel IC50 determination, cells were plated in quadruplicate at a density of 3000 cells per well in 384-well plates in normal growth medium and allowed to adhere overnight. Paclitaxel (Sigma) or MMAE (Seattle Genetics, Seattle, Wash.) were added in 10 concentrations based on a three-fold dilution series (1 μmol/L maximal paclitaxel or 0.1 μmol/L maximal for MMAE).
(§2) Cell viability was measured 72 hours later using the Celltiter-Glo Luminescent Cell Viability Assay (Promega, Madison, Wis.). The concentration of drug resulting in the 50% inhibition of cell viability (IC50) was calculated from a four-parameter curve analysis (XLfit, 1DSS software) and was determined from a minimum of three experiments. […] FIG. 6 provides examples of representative cell viability experiments for six cell lines. Cell lines EFM192A, NDAMB361, and BT474 were classified as resistant to each agent in the bioinformatic analysis. AU565, EFM19, and MDAMB468 were classified as sensitive. IC50 values from fitted curves are shown in the charts to the right of each graph.

For assay [2], the system named is NDAMB361. Kind of assay: Celltiter-Glo Luminescent Cell Viability Assay, NDAMB361. The format is cell-based, human. The note with it: NDAMB361, 72 hours. As for the experimental part:
as §1, §2
Background: In ATP-based viability assays light output follows the ATP content of the culture.

The subject of assay [3] is BT474. Kind of assay: Celltiter-Glo Luminescent Cell Viability Assay, BT474. The format is cell-based, human. As to conditions: BT474, 72 hours. As for the experimental part:
as §1, §2

The test system of assay [4] is AU565. Put plainly: Celltiter-Glo Luminescent Cell Viability Assay, AU565. The format is cell-based. As to conditions: Homo sapiens; AU565, 72 hours; read-out: classification in the bioinformatic analysis (IC50 cell viability), paclitaxel. The procedure: as §1, §2
Assay [5] has as its system EFM19. Put plainly: Celltiter-Glo Luminescent Cell Viability Assay, EFM19. The format is cell-based. As to conditions: Homo sapiens, EFM-19; EFM19, 72 hours; read-out: classification in the bioinformatic analysis (IC50 cell viability), paclitaxel. The procedure: as §1, §2
Assay [6] concerns MDAMB468. Kind of assay: Celltiter-Glo Luminescent Cell Viability Assay, MDAMB468. The note with it: Homo sapiens, MDA-MB-468; MDAMB468, 72 hours; read-out: classification in the bioinformatic analysis (IC50 cell viability), paclitaxel. The format is cell-based. The procedure: as §1, §2
In assay [7] the test system is EVSA-T cells (empty vector control clone). Kind of assay: ATP-based luminescence viability assay, EVSA-T vector control line. The format is cell-based, human. As to conditions: three day assay, read-out: EC50 (concentration that resulted in half-maximal response). From the text:
(§3) The control cell line in FIG. 5 is in fact a clone of EVSA-T derived after transfection with an empty vector and in the particular experiment shown achieved an IC50.
(§4) For ABCC3 overexpression experiments a full length ABCC3 cDNA cloned in the CMV promoter containing vector pCMV5 (Invitrogen, Carlsbad, Calif.) was verified by sequencing the entire coding sequence. The construct was transfected into EVSA-T cells and stable clones were selected by growth in lmg/ml geneticin (Invitrogen Carlsbad, Calif.). Overexpression of ABCC3 in stable clones was confirmed by qRT-PCR on cDNA derived from lines containing pCMV5-ABCC3, pCMV5 vector alone, or the parental EVSA-T strain. All stable cell lines described in this report were determined in qRT-PCR experiments to express at least 25-35× more ABCC3 transcript than vector control lines or the parental cell line.
(§5) Three independently derived lines were confirmed to overexpress ABCC3 transcripts and screened for in vitro sensitivity to paclitaxel and MMAE using an ATP-based luminescence assay. […] The EC50 for the vector control treated with paclitaxel was 0.2 nM while the EC50 values for the ABCC3-expressing lines were 5 nM, 10 nM, and 80 nM, respectively.

Assay [8] relates to ABCC3-overexpressing EVSA-T cells. Put plainly: ATP-based luminescence viability assay, ABCC3-overexpressing EVSA-T clones. The format is cell-based, human. As to conditions: for EC50: three day assay, read-out: EC50 (concentration that resulted in half-maximal response); for inhibition of cell growth compared to vector-alone control stable cell line: all three overexpressing cell lines, ATP-based luminescence assay (FIG. 5).
Excerpt: as §3, §4, §5
EVSA-T cells were stably transfected with an ABCC3 containing plasmid where ABCC3 is expressed at high levels from a cytomegalovirus (CMV) promoter. Overexpression of ABCC3 was confirmed by qRT-PCR.

Assay [9] concerns EFM-192A cells. Put plainly: Mitotic index (phospho histone H3) after ABCC3 or control siRNA, EFM-192A. The format is cell-based, human. As to conditions: for sensitivity (mitotic response) of ABCC3 siRNA transfected cells vs control siRNA (NTC) transfected cells: EFM-192A cells. The procedure:
High content screening assays were carried out on an Arrayscan VTI (Cellomics Inc, Pittsburgh, Pa.). Cells were transfected in 96 well format using siRNA “Smartpool” oligonucleotides purchased from Dharmacon Inc and Oligofectamine transfection reagents. To prioritize genes for functional studies, 2-sided Wilcoxon rank sum tests using the R programming language (http://www.r-project.org) were done to identify genes with a significant difference in gene expression in cell lines with more than 4 copies compared to those with less than 4 copies of the 17q21.3 amplicon. This analysis combined with availability of reagents for RNAi experiments led to the selection of the following 24 genes for functional studies in the EFM-192A cell line: ABCC3, COL1A1, CROP, EAP, EPN3, FLJ13855, F1120920, HOXB7, LOC201191, ITGB3, KIAA0924, KPNB1, LOC400604, LOC81558, MGC11242, MGC15396, NDP52, PDK2, PHB, PP1R9B, SLC35B1, SPOP, TOB1, WNT3. Follow-up studies with ABCC3 siRNA were conducted in the additional cell lines ZR75-30, MDAMB-453 and HCC-1428. […] After 48 hours or 72 hours incubation at 37 C, cells were fixed in 3.7% formaldehyde and permeabilized in 0.1% Triton X-100, followed by labeling with a 1:500 dilution of anti-phospho histone H3 (pH3, Upstate) and subsequent 1:250 dilution of Alexa-fluor 488 (Molecular probes) Goat anti-rabbit secondary antibody. Cells were counterstained with Hoechst-33258 to allow identification of nuclei and the percentage of cells positive for nuclear pH3 immunofluorescence, also known as the Mitotic Index (30), was then quantitated for at least 1000 cells per well using Cellomics Target Activation software.
Phosphorylation at Ser10 of histone H3 is tightly correlated with chromosome condensation during M phase, and the percentage of cells that are positive for pH3 staining, or mitotic index, can be determined through an immunofluorescence assay.

Assay [10] relates to ZR75-30. Kind of assay: Mitotic index (phospho histone H3) after ABCC3 or control siRNA, ZR75-30. As to conditions: ZR75-30 (ABCC3 amplified), drug-treated cells. The format is cell-based, human. As for the experimental part:
(§6) High content screening assays were carried out on an Arrayscan VTI (Cellomics Inc, Pittsburgh, Pa.). Cells were transfected in 96 well format using siRNA “Smartpool” oligonucleotides purchased from Dharmacon Inc and Oligofectamine transfection reagents. To prioritize genes for functional studies, 2-sided Wilcoxon rank sum tests using the R programming language (http://www.r-project.org) were done to identify genes with a significant difference in gene expression in cell lines with more than 4 copies compared to those with less than 4 copies of the 17q21.3 amplicon. […] Cells were counterstained with Hoechst-33258 to allow identification of nuclei and the percentage of cells positive for nuclear pH3 immunofluorescence, also known as the Mitotic Index (30), was then quantitated for at least 1000 cells per well using Cellomics Target Activation software.
(§7) An RNA interference strategy was used to identify the gene responsible for mediating resistance to taxanes and auristatins in amplified cell lines. […] Phosphorylation at Ser10 of histone H3 is tightly correlated with chromosome condensation during M phase, and the percentage of cells that are positive for pH3 staining, or mitotic index, can be determined through an immunofluorescence assay. […]

For assay [11], the system named is HCC-1428. Put plainly: Mitotic index (phospho histone H3) after ABCC3 or control siRNA, HCC-1428. The format is cell-based, human. As to conditions: HCC-1428 (non-amplified), drug-treated cells. The procedure: as §6, §7
In assay [12] the test system is MDA-MB-453. Put plainly: Mitotic index (phospho histone H3) after ABCC3 or control siRNA, MDA-MB-453. The note with it: MDA-MB-453 (non-amplified), drug-treated cells. The format is cell-based, human. The procedure:
as §6, §7

Assay [13] has as its system HER2-positive metastatic breast cancer. As for the experimental part: ABCC3 FISH analysis was performed on samples obtained from the T-DM1 Phase II (TDM4258G) trial to explore the effect of ABCC3 amplification on T-DM1 activity in HER2 amplified breast tumors. The TDM4258G trial is a multi-institutional, open-label, single-arm, Phase II study of T-DM1 administered by IV infusion to patients with HER2-positive metastatic breast cancer. The patients in the trial had shown prior progression on HER2-directed therapy. Formalin Fixed Paraffin Embedded (FFPE) archival tumor tissue samples from the clinical trial was obtained from the clinical investigation sites with appropriate IRB approval and patient consent.
The FISH assay was performed on the clinical trial samples as described in Example 1. […] Those samples with ABCC3/CEP17 ratios of 1.8 and above are considered to have ABCC3 amplification.

Setting [14] is: read-out: classification in the bioinformatic analysis (IC50 cell viability), MMAE.

As to `CC(=O)O[C@H]1C(=O)[C@@]2(C)[C@H]([C@H](OC(=O)c3ccccc3)[C@]3(O)C[C@H](OC(=O)[C@H](O)[C@@H](NC(=O)c4ccccc4)c4ccccc4)C(C)=C1C3(C)C)[C@]1(OC(C)=O)CO[C@@H]1C[C@@H]2O` [paclitaxel], the IC50 in assay [1] (Homo sapiens, EFM-192A, read-out: classification in the bioinformatic analysis (IC50 cell viability), paclitaxel) was more than 1000 nM; in [2] (Homo sapiens, read-out: classification in the bioinformatic analysis (IC50 cell viability), paclitaxel) it was more than 1000 nM; in [3] (Homo sapiens, BT-474, read-out: classification in the bioinformatic analysis (IC50 cell viability), paclitaxel) it was more than 1000 nM; in assay [4] it was less than 10 nM; in [5], less than 10 nM; in assay [6] it was less than 10 nM. The EC50 in [7] (Homo sapiens, 72 h) came out at 0.2 nM; in assay [8] (Homo sapiens, EVSA-T, 72 h, first ABCC3-expressing EVSA-T line), 5 nM; in assay [8] (Homo sapiens, EVSA-T, 72 h, second ABCC3-expressing EVSA-T line), 10 nM; in assay [8] (Homo sapiens, EVSA-T, 72 h, third ABCC3-expressing EVSA-T line), 80 nM. Besides, the “inhibition of cell growth compared to vector-alone control stable cell line” value in assay [8] is “markedly less inhibition of cell growth”. For the same molecule, the “change in mitotic index, ABCC3 RNAi relative to non-targeting control siRNA” value in assay [9] (EFM-192A (ABCC3 amplified), drug-treated cells) is “two to three fold increase”; in assay [10] it was “two to three fold increase”; in assay [11], “did not appreciably alter”; in assay [12], “did not appreciably alter”.
Take `CC[C@H](C)[C@@H]([C@@H](CC(=O)N1CCC[C@H]1[C@H](OC)[C@@H](C)C(=O)N[C@H](C)[C@@H](O)c1ccccc1)OC)N(C)C(=O)[C@@H](NC(=O)[C@@H](NC)C(C)C)C(C)C` [MMAE, monomethyl auristatin E] (H-[NMeV]V[Dil][Dolaproine]-X1): the IC50 in assay [1] (setting [14]), in assay [2] (setting [14]) and in assay [3] (setting [14]) was more than 100 nM throughout. The EC50 is 0.05 nM in assay [7], 1.5 nM in assay [8] (first ABCC3-expressing EVSA-T line), 12 nM in [8] (second ABCC3-expressing EVSA-T line) and 90 nM in assay [8] (third ABCC3-expressing EVSA-T line). The “inhibition of cell growth compared to vector-alone control stable cell line” value in assay [8] is reported as “markedly less inhibition of cell growth”.
As to Trastuzumab-MCC-DM1 [T-DM1], the “sensitivity (mitotic response) of ABCC3 siRNA transfected cells vs control siRNA (NTC) transfected cells” value in assay [9] is “more sensitive”. For the same molecule, the “patients who responded to treatment” value in assay [13] (samples with amplification of ABCC3 (ABCC3/CEP17 ratio 1.8 and above), 2/5, IV infusion) is reported as 40%; in assay [13] (samples with no amplification of ABCC3 (ABCC3/CEP17 below 1.8), 12/15, IV infusion), 80%.
`COc1cc2cc(c1Cl)N(C)C(=O)C[C@H](OC(=O)[C@H](C)N(C)C(=O)CCS)[C@]1(C)O[C@H]1[C@H](C)[C@@H]1C[C@@](O)(NC(=O)O1)[C@H](OC)/C=C/C=C(\C)C2` [DM1]: the “sensitivity to free DM1 vs control cell line” value in [8] (three ABCC3 overexpressing clones, standard cell viability assay (FIG. 7)) is “more resistant”. In addition, the “sensitivity (mitotic response) of ABCC3 siRNA transfected cells vs control siRNA (NTC) transfected cells” value in assay [9] was “more sensitive”.
